Two compounds from patent US20160326098A1, “Pharmaceutically Active Compound for Use as Anti-inflammatory Agent” (Pax Forschung GmbH, priority 2013, published 2016) can be followed below.

The structures appear in SMILES notation.

Holding throughout (format): in vivo
Data set [1] can be described thus: Haematocrit in blood, rats with gastric injury without inflammation. The conditions noted are these: 1.11 mmol/kg; for percentage of haematocrit in the blood / haematocrit level, low haematocrit data group (severe bleeding with plasma and cell loss): vs control group H; for percentage of haematocrit in the blood: FIG. 18; for haematocrit level, low haematocrit data group (severe bleeding with plasma and cell loss): FIG. 20; for haematocrit level, high haematocrit data group (bleeding with plasma loss): vs sham group H, FIG. 19. The procedure:
(§1) The medicinal activity of the compound according to the invention and the pharmaceutical composition according to the invention was tested in a series of experiments performed on rats. The experiments were performed on male Sprague-Dawley rats (280-320 g) housed in plastic cages in a thermoneutral environment (21° C.±2° C.) with a 12 h dark-light cycle. The animals, fed on a normal diet with tap water ad libitum, were randomly allocated into experimental groups according to the feeding protocols.
(§2) Further experiments regarding the effect of a compound of formula (I) and a pharmaceutical composition comprising a compound of formula (I), respectively, on gastric injury without inflammation were conducted on rats. 15 animals were randomly allocated into three groups. Group H (n=5) served as sham-operated controls. Samples of all animals were drawn on day 1 of the clinical tests. On day 2 the animals of group I (n=5) were force-fed acetylsalicylic acid (ASS) (1.11 mmol/kg body weight). Group K (n=5) was force-fed 1.11 mmol/kg body weight of the compound according to the invention. Group H only received the respective solvent (25% ethanol in water). One day after the gavage, additional samples were drawn. Fluorescence confocal endomicroscopy was performed to examine the microvasculature and morphologic changes of the mucosa of the distal colon, and full-thickness tissue samples and venous blood samples were taken to determine the biochemical changes in the colon and plasma. The effects were determined by way of measurement of body weight, blood gas analysation and biopsy. ASS was chosen as a comparative example due to its structural similarity and its known activity as anti-inflammatory agent.
On the basis of the haematocrit measurements, the data can be divided into two groups:
a) high haematocrit level, indicating bleeding with plasma loss (FIG. 19); and b) low haematocrit level, indicating severe bleeding with plasma and cell loss (FIG. 20).

Data set [2] in a line: Body weight, rats with gastric injury without inflammation. To be noted: 1.11 mmol/kg force-fed, one day after, FIG. 17. The procedure:
as §1
as §2, with “Group K (n=5) was force-fed 1.11 mmol/kg body weight of the compound according to the invention. Group H only received the respective solvent (25% ethanol in water). One day after the gavage, additional samples were drawn.” left out, “ASS was chosen as a comparative example due to its structural similarity and its known activity as anti-inflammatory agent.” left out

A further data set has as its system myeloperoxidase (MPO). The data set is described as follows: Tissue myeloperoxidase activity, rats with gastric injury without inflammation. The conditions noted are these: gastric and colon tissue, one day after 1.11 mmol/kg, vs control group H, FIGS. 23a/23b. The procedure: Colon biopsies kept on ice were homogenized in phosphate buffer (pH 7.4) containing 50 mM Tris-HCl (Reanal, Budapest, Hungary), 0.1 mM EDTA, 0.5 mM dithiothreitol, 1 mM phenylmethylsulfonyl fluoride, 10 μg/ml soybean trypsin inhibitor, and 10 μg/ml leupeptin (Sigma Aldrich GmbH, Munich, Germany). The homogenate was centrifuged at 4° C. for 20 minutes at 24,000 g, and the supernatant was loaded into centrifugal tubes (Amicon Centricon-100; 100,000-molecular-weight cutoff ultrafilter, Millipore Corporation, Bedford, Mass.). The activity of myeloperoxidase (MPO) was measured on the pellet of the homogenate.
The activity of MPO as a marker of tissue leukocyte infiltration was measured on the pellet of the homogenate. Briefly, the pellet was resuspended in K3PO4 buffer (0.05 M; pH 6.0) containing 0.5% hexa-1,6-bis-decyltriethylammonium bromide. After three repeated freeze-thaw procedures, the material was centrifuged at 4° C. for 20 minutes at 24,000 g, and the supernatant was used for MPO determination. […] The reaction led to the hydrogen peroxide-dependent oxidation of tetramethylbenzidine, which could be detected spectrophotometrically at 450 nm (UV-1601 spetrophotometer; Shimadzu, Kyoto, Japan). Myeloperoxidase activities were measured at 37° C.; the reaction was stopped after 5 minutes by the addition of 0.2 ml of H2SO4 (2 M), and the resulting data were referred to the protein content. […]

Data set [3] deals with xanthine oxidase enzyme. The data set is described as follows: Xanthine oxidase enzyme activity in tissue, mice with TNBS-induced colitis. To be noted: gastric and colon tissue, 1.11 mmol/kg, FIGS. 14a/14b. The procedure:
(§3) Colonic inflammation was induced by intracolonic administration of TNBS (2,4,6-trinitrobenzenesulfonic acid) (40 mg/kg in 0.25 ml of 25% aqueous ethanol) through an 8-cm-long soft plastic catheter under transient diethylether anesthesia. In the sham-operated groups, only the vehicle for TNBS was administered. The animals were deprived of food, but not water, for 12 h before the enemas.
(§4) The XOR activity was determined in the ultrafiltered, concentrated supernatant by fluorometric kinetic assay based on the conversion of pterine to isoxanthopterine in the presence (total XOR) or absence (xanthine oxidase activity) of the electron acceptor methylene blue.
(§5) The above-described clinical studies were repeated with animals having colitis which was induced as described above. […] Two days after the enema the effects of the treatment were determined by measurement of body weight, blood gas analysis and biopsy. […] Surgery was performed to allow registration of the hemodynamic parameters at 1 h intervals for 6 h (cardiac output [CO] data were measured only at the end of the experiments). […] In addition, fluorescence confocal endomicroscopy was performed to examine the microvasculature and morphologic changes of the mucosa of the distal colon, and full-thickness tissue samples and venous blood samples were taken to determine the biochemical changes in the colon and plasma.

The test system of data set [4] is xanthine oxidase enzyme. The data set is described as follows: Xanthine oxidase enzyme activity in tissue, rats with TNBS-induced colitis. To be noted: gastric and colon tissue, 1.11 mmol/kg, FIGS. 33a/33b. The procedure: as §3, §4, §5

With `CC(=O)Oc1ccccc1C(=O)O` [ASS, acetylsalicylic acid, reference compound], in data set [1], the “percentage of haematocrit in the blood” value is recorded as “severe change in the haematocrit level”; the “haematocrit level, low haematocrit data group (severe bleeding with plasma and cell loss)” value is “severe drop”; the “haematocrit level, high haematocrit data group (bleeding with plasma loss)” value was “increase of the haematocrit level”. Moreover, in data set [2], the “change in body weight” value is recorded as “severe loss of body weight”. Moreover, the “myeloperoxidase (MPO) activity” value with myeloperoxidase (MPO) is reported as “increased”. Besides, in the data set with xanthine oxidase enzyme [3], the “activity of xanthine oxidase enzyme” value was “only a slight decrease in activity”. In the data set with xanthine oxidase enzyme [4], the “activity of xanthine oxidase enzyme” value is listed as “only a slight decrease in activity”.

For `CC(=O)Oc1ccccc1C(=O)NC(CO)(CO)CO` [compound according to the invention], in data set [1], the “percentage of haematocrit in the blood” value is “No change in the haematocrit level”; the “haematocrit level, low haematocrit data group (severe bleeding with plasma and cell loss)” value is reported as “no changes could be detected”; the “haematocrit level, high haematocrit data group (bleeding with plasma loss)” value was “no change in the haematocrit level”. For the same compound, the “change in body weight” value in data set [2] is reported as “only showed a minor loss in body weight”. In addition, the “myeloperoxidase (MPO) activity” value with myeloperoxidase (MPO) is reported as “does not further enhance the inflammatory processes”. For the same compound, in the data set with xanthine oxidase enzyme [3], the “activity of xanthine oxidase enzyme” value is reported as “enzyme activity comparable to that of healthy animals”. Also, the “activity of xanthine oxidase enzyme” value in the data set on xanthine oxidase enzyme [4] is reported as “enzyme activity comparable to that of healthy animals”.
